From article PMC9904277, “Rational design of Harakiri (HRK)-derived constrained peptides as BCL-xL inhibitors” (Chemical Communications (Cambridge, England), 2023)
*1 amine or outer side, *2 acyl side, *3 side chain or, on linkers, in order; H or OH if unused. Where a SMILES comes first, the peptide text is derived from it. Bridges are numbered along the chain shown (N, C = ends). [ ]: non-standard residue; d: D form. The star is where a group is joined. 5FAM = O=C1OC2(c3ccc(O)cc3Oc3cc(O)ccc32)c2ccc(C(=O)*)cc21; Maleimide(3,4-diyl) = O=C1NC(=O)C([*:2])=C1[*:1]; Nle = CCCC[C@H](N)C(=O)O; Ahx = NCCCCCC(=O)O

Key:
MCL-1 [1] = target: T1, MCL-1 (Homo sapiens, UniProt Q07820); test: biochemical
T1 sequence (Q07820 172-327): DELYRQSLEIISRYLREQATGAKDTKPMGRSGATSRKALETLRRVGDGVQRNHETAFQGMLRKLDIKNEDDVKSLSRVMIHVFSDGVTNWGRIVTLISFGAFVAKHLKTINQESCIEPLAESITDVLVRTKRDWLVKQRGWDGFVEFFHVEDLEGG

BCL-xL = target: T2, BCL-xL (Homo sapiens, UniProt Q07817, DEL27-82); test: Direct FA titration of FAM-labelled tracer with BCL-xL; assay type: binding; conditions: FAM-Ahx-Beclin-1 150 nM, BCL-xL 6 nM-125 μM, 25 mM Tris, 150 mM NaCl, pH 7.4, 20 °C
T2 construct: BCL-2, 1-209; His-SUMO (N, cleaved yes); made in house; host or cells: E. coli BL21
T2 sequence (Q07817 with tags, fused parts or gaps DEL27-82): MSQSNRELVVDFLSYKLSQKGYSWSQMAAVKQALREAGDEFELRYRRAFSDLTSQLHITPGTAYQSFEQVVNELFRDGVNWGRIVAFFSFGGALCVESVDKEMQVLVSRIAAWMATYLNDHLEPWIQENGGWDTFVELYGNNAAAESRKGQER

MCL-1 [2] = target: T1, MCL-1; conditions: IC50 HRK/MCL-1 divided by IC50 HRK/BCL-xL

Kd (BCL-xL)	Molecule	IC50 (MCL-1 [1])	IC50 ratio MCL-1 : BCL-xL (selectivity index) (MCL-1 [2])
	CSCC[C@H](NC(=O)[C@H](CCCNC(=N)N)NC(=O)[C@H](CCCNC(=N)N)NC(=O)[C@H](CC(C)C)NC(=O)[C@H](CCC(=O)O)NC(=O)[C@H](CCCNC(=N)N)NC(=O)CNC(=O)[C@H](Cc1ccc(O)cc1)NC(=O)[C@H](CCCNC(=N)N)NC(=O)[C@H](CCC(N)=O)NC(=O)[C@H](C)NC(=O)[C@H](C)NC(=O)[C@H](Cc1c[nH]c2ccccc12)NC(=O)[C@H](CC(C)C)NC(=O)[C@H](CC(N)=O)NC(C)=O)C(=O)N[C@@H](CO)C(=O)N[C@@H](CC(=O)O)C(=O)N[C@@H](CCC(=O)O)C(=O)N[C@@H](Cc1ccccc1)C(=O)N[C@H](C(=O)N[C@@H](CC(=O)O)C(=O)N[C@@H](CO)C(=O)N[C@@H](Cc1ccccc1)C(=O)N[C@@H](CCCCN)C(=O)N[C@@H](CCCCN)C(N)=O)C(C)C [BAD-wt, reference compound]	> 50 µM	
9.7 ± 2.3 µM	CC[C@H](C)[C@H](NC(=O)[C@H](CC(=O)O)NC(=O)[C@H](Cc1ccccc1)NC(=O)[C@H](CC(C)C)NC(=O)[C@H](CC(=O)O)NC(=O)CNC(=O)[C@@H](NC(=O)[C@@H](NC(=O)[C@H](CCCCN)NC(=O)[C@H](CC(C)C)NC(=O)[C@H](CCCNC(=N)N)NC(=O)[C@H](CCCNC(=N)N)NC(=O)[C@H](CO)NC(=O)[C@H](CC(C)C)NC(=O)[C@H](CC(N)=O)NC(=O)[C@H](CCC(=O)O)NC(=O)[C@H](CCSC)NC(=O)[C@@H](NC(=O)CCCCCNC(=O)c1ccc2c(c1)C(=O)OC21c2ccc(O)cc2Oc2cc(O)ccc21)[C@@H](C)O)C(C)C)[C@@H](C)O)C(=O)N[C@@H](CCSC)C(=O)N[C@@H](CO)C(N)=O [FAM-Ahx-Beclin-1] ({5FAM-Ahx}-TMENLSRRLKVTGDLFDIMS-NH2)		
	CCCC[C@H](NC(=O)[C@H](C)NC(=O)[C@H](CCCCN)NC(=O)[C@H](CC(C)C)NC(=O)[C@H](CCCNC(=N)N)NC(=O)[C@H](C)NC(=O)[C@H](C)NC(=O)[C@H](Cc1ccc(O)cc1)NC(=O)[C@H](CC(C)C)NC(=O)[C@H](CCC(N)=O)NC(=O)[C@H](C)NC(=O)[C@H](C)NC(=O)[C@H](CO)NC(C)=O)C(=O)NCC(=O)N[C@@H](CC(=O)O)C(=O)N[C@@H](CCC(=O)O)C(=O)N[C@@H](Cc1ccccc1)C(=O)N[C@@H](Cc1c[nH]cn1)C(=O)N[C@@H](CCC(N)=O)C(N)=O [HRK-3] (Ac-SAAQLYAARLKA[Nle]GDEFHQ-NH2)	> 50 µM	
	CC(=O)N[C@@H](CO)C(=O)N[C@@H](C)C(=O)N[C@@H](C)C(=O)N[C@@H](CCC(N)=O)C(=O)N[C@@H](CC(C)C)C(=O)N[C@@H](Cc1ccc(O)cc1)C(=O)N[C@@H](C)C(=O)N[C@@H](CS)C(=O)N[C@@H](CCCNC(=N)N)C(=O)N[C@@H](CC(C)C)C(=O)N[C@@H](CCCCN)C(=O)N[C@@H](CS)C(=O)N[C@@H](Cc1ccccc1)C(=O)NCC(=O)N[C@@H](CC(=O)O)C(=O)N[C@@H](CCC(=O)O)C(=O)N[C@@H](Cc1ccccc1)C(=O)N[C@@H](Cc1c[nH]cn1)C(=O)N[C@@H](CCC(N)=O)C(N)=O [HRKC4H] (Ac-SAAQLYACRLKCFGDEFHQ-NH2)	> 50 µM	>2.5
	CSCC[C@H](NC(=O)[C@@H](NC(=O)[C@H](CCCNC(=N)N)NC(=O)[C@H](CCC(N)=O)NC(=O)[C@H](Cc1c[nH]cn1)NC(=O)[C@H](CC(C)C)NC(=O)[C@H](CCC(=O)O)NC(=O)[C@H](CC(=O)O)NC(=O)CNC(=O)[C@H](CC(C)C)NC(=O)[C@H](CS)NC(=O)[C@H](CCCCN)NC(=O)[C@H](CC(C)C)NC(=O)[C@H](CCCNC(=N)N)NC(=O)[C@H](CS)NC(=O)[C@H](C)NC(=O)[C@@H](NC(=O)[C@H](CC(C)C)NC(=O)[C@H](CCC(N)=O)NC(=O)[C@H](C)NC(=O)[C@H](C)NC(=O)[C@H](CO)NC(C)=O)[C@@H](C)O)[C@@H](C)O)C(=O)N[C@@H](Cc1c[nH]c2ccccc12)C(N)=O [HRKC4] (Ac-SAAQLTACRLKCLGDELHQRTMW-NH2)	3.9 ± 0.2 µM	
	CC(=O)N[C@@H](CO)C(=O)N[C@@H](C)C(=O)N[C@@H](C)C(=O)N[C@@H](CCC(N)=O)C(=O)N[C@@H](CC(C)C)C(=O)N[C@@H](Cc1ccc(O)cc1)C(=O)N[C@@H](C)C(=O)N[C@H]1CSC2=C(SC[C@@H](C(=O)N[C@@H](Cc3ccccc3)C(=O)NCC(=O)N[C@@H](CC(=O)O)C(=O)N[C@@H](CCC(=O)O)C(=O)N[C@@H](Cc3ccccc3)C(=O)N[C@@H](Cc3c[nH]cn3)C(=O)N[C@@H](CCC(N)=O)C(N)=O)NC(=O)[C@H](CCCCN)NC(=O)[C@H](CC(C)C)NC(=O)[C@H](CCCNC(=N)N)NC1=O)C(=O)NC2=O [HRKS4H] (Ac-SAAQLYACRLKCFGDEFHQ-NH2; linker 8-12 via Maleimide(3,4-diyl))	> 50 µM	>5.9
	Ac-RYGRELRRMSDEFVDSFKK-NH2 [BAD-s, reference compound]	> 50 µM	
	Ac-SAAQLLAARLKAFGDEFHQ-NH2 [HRK-5]	16 ± 4.4 µM	16.0
	Ac-SAAQLLAARLKALGDELHQ-NH2 [HRK-4]	3.5 ± 1.2 µM	2.5
	Ac-SAAQLTAARLKALGDELHQ-NH2 [HRK-s]	> 50 µM	> 2.3
	Ac-SAAQLYAARLKAFGDEFHQ-NH2 [HRK-hybrid]	> 50 µM	>55.5
	Ac-SAAQLYAARLKALGDEFHQ-NH2 [HRK-2]	> 50 µM	> 45.4
	Ac-SAAQLYAARLKALGDELHQ-NH2 [HRK-1]	> 50 µM	> 5.8
